Where a name gives a salt, the structure may show the parent alone. Read-outs that look alike come from different tables or passages of the source.
Key:
5-HT2 receptor = target: T1, 5-HT2 receptor (Rattus norvegicus, UniProt P14842); experiment: Quipazine inhibition (head twitches); assay type: in vivo; details: for Qvipaz. inh. ED50(sc): sc 2 hours before quipazine 15 umol/kg sc
T1 construct: from tissue; host or cells: living rats (in vivo), CNS
Description: Quipazine and a number of other compounds, which increase 5-HT2 receptor activity in the CNS, induce a characteristic rapid shake (twitch) of the head. This response is inhibited by 5-HT2 receptor antagonists (Vetulani et al. 1980, Arnt et al. 1984).
The test compound or saline is injected subcutaneously 2 hours before subcutaneous injection of quipazine hemimalecate (15umol/kg). At least 3 dose groups, each consisting of at least 4 rats, are used. The rats are individually placed in observation cages (12×25 cm) and the number of head twitches are counted 30-40 min after quipazine administration. Inhibition of head twitches is expressed in per cent of the number of head twitches in the control group. ED 50 values are calculated by log-probit analysis.
Vetulani, J., B.B. Beduarczyk, K. Reichenberg and A. Rokost: Neuropharmacology 19, 155-158, […].
Arnt, J., J. Hyttel and J.-J. Larsen: Acta pharmacol. et toxicol. 55, 363-372, 1984.

Catalepsy = assay type: in vivo, rat
[1] = system: methylphenidate-induced gnawing; experiment: Methylphenidate antagonism; assay type: in vivo, mice
[2] = target: T2, dopamine (DA) D-2 receptors (Rattus norvegicus, UniProt P61169); experiment: 3H-spiroperidol binding, dopamine D-2 receptors in rat striatal membranes
T2 construct: DA D-2 receptors in rat striatal membranes; from tissue; host or cells: rat striatal membranes
T2 sequence (P61169 whole entry): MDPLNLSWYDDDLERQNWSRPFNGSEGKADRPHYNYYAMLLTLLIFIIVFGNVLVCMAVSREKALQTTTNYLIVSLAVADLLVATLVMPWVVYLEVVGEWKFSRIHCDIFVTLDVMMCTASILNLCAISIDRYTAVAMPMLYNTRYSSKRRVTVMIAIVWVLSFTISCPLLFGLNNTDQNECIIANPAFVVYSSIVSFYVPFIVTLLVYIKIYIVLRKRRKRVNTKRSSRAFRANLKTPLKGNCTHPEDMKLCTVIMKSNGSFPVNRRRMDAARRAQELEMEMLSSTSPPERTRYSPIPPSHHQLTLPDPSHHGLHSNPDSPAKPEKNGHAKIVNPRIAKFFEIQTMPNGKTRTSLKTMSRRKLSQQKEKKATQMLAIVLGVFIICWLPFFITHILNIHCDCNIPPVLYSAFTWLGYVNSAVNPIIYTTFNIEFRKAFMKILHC
Description: 4. ^3 H-spiroperidol bindings
The affinity of compounds to dopamine (DA) D-2 receptors and serotomin2 (5-HT2) receptors was determined by in vitro receptor binding technique.
Arnt, J., J. Hyttel and J.-J. Larsen: Acta pharmacol. et toxicol.

[3] = read-out: Catalep. ED50(po) 1-6 h, po, rat, 1-6 h
[4] = Mus musculus, ip; i.p. test substance; mice; methylphenidate s.c. 60 mg/kg; read-out: MePh Antg. ED50(ip)
[5] = Mus musculus, ip, read-out: MePh Antg. ED50(ip)
[6] = read-out: Catalep. ED50(po) 24 h, po, rat, 24 h
[7] = Rattus norvegicus, sc, 24 h, read-out: Catalep. ED50 (sc) 24 h
[8] = Rattus norvegicus, sc, read-out: Catalep. ED50 (sc) 1-6 h
[9] = Mus musculus, sc, read-out: MePh Antg. ED50 (sc)
[10] = Rattus norvegicus, po, 24 h, read-out: Catalep. ED50(po) 24 h
[11] = Rattus norvegicus, po, read-out: Catalep. ED50(po) 1-6 h
[12] = Mus musculus, sc; read-out: MePh Antg. ED50 (sc)

T1 sequence (P14842 whole entry): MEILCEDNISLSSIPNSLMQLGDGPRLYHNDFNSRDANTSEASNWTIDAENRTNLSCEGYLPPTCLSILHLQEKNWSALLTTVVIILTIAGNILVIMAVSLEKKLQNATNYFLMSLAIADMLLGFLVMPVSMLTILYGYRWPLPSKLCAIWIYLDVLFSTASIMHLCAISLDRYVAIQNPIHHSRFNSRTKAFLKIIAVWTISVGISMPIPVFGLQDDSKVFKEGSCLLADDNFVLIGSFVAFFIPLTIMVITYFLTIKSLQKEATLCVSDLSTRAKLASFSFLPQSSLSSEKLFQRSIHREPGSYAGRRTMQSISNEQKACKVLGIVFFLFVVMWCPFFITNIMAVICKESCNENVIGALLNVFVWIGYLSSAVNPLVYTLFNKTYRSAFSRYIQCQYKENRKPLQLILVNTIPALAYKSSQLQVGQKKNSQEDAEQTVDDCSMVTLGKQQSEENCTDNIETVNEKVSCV

SMILES: OCCN1CCN(CC/C=C2/c3ccccc3Sc3ccc(C(F)(F)F)cc32)CC1 [Cis(Z)Flupentixol, reference compound]
- Qvipaz. inh. ED50(sc) (5-HT2 receptor): 0.042 µmol/kg
- Catalep. ED50(po) 1-6 h (Catalepsy; po, rat, 1-6 h): 2.4 µmol/kg
- Catalep. ED50(po) 24 h (Catalepsy; po, rat, 24 h): 19 µmol/kg
- MePh Antg. ED50(ip) ([1]; i.p. test substance; mice; methylphenidate s.c. 60 mg/kg): 0.14 µmol/kg

SMILES: O=C(CCCN1CCC(O)(c2ccc(Cl)cc2)CC1)c1ccc(F)cc1 [Haloperidol, reference compound]
- ED50 (Catalepsy; [3]): 1 µmol/kg
- ED50 [1, 4]: 0.11 µmol/kg

SMILES: Cc1ccc2c(c1)c(C1CCN(C)CC1)cn2-c1ccc(F)cc1 [Lu 21-037, 1-(4'-Fluorophenyl)-5-methyl-3-(1-methyl-4-piperidyl)-1H-indole, hydrobromide]
- ED50 [1, 4]: 2.1 µmol/kg

SMILES: O=C1NCCN1CCN1CC=C(c2cn(-c3ccc(F)cc3)c3ccc(F)cc23)CC1 [Lu 21-046, oxalate]
- ED50 [1, 5]: 48.1 µmol/kg

SMILES: CN1CCC(c2cn(-c3ccc(F)cc3)c3ccc(C(F)(F)F)cc23)CC1 [Lu 21-131, 1-(4'-Fluorophenyl)-3-(1-methyl-4-piperidyl)-5-trifluoromethyl-1H-indole, oxalate]
- ED50 (Catalepsy; [3]): 0.59 µmol/kg
- ED50 (Catalepsy; [6]): 2.2 µmol/kg
- ED50 [1, 4]: 0.6 µmol/kg

SMILES: CC(C)CN1CC=C(c2cn(-c3ccc(F)cc3)c3ccc(Cl)cc23)CC1 [Lu 22-134, 5-Chloro-1-(4'-fluorophenyl)-3-(1-isobutyl-1,2,3,6-tetrahydropyridin-4-yl)-1H-indole, hydrobromide]
- IC50 [2]: 5.3 nM
- Qvipaz. inh. ED50(sc) (5-HT2 receptor): 2.5 µmol/kg
- ED50 (Catalepsy; [7]): > 2.7 µmol/kg
- ED50 (Catalepsy; [8]): 2.7 µmol/kg
- ED50 [1, 5]: 1.7 µmol/kg

SMILES: Fc1ccc(-n2cc(N3CCN(CCN4CCCC4=S)CC3)c3cc(C(F)(F)F)ccc32)cc1 [Lu 23-018, 1-(4'-Fluorophenyl)-3-(4-(2-(pyrrolidin-2-thion-1-yl)-ethyl)-1-piperazino)-5-trifluoromethyl-1H-indole]
- ED50 (Catalepsy; [3]): 1.2 µmol/kg
- ED50 (Catalepsy; [6]): 2.9 µmol/kg
- ED50 [1, 4]: 53 µmol/kg

SMILES: O=C1NCCN1CCN1CC=C(c2cn(-c3ccc(F)cc3)c3ccccc23)CC1 [Lu 23-075, 1-(4'-Fluorophenyl)-3-(1-(2-imidazolidinon-1-ylethyl)-1,2,3,6-tetrahydropyridin-4-yl)-1H-indole, hydrochloride]
- ED50 (5-HT2 receptor; sc, 2 h, read-out: Qvipaz. inh. ED50(sc)): 0.18 µmol/kg
- ED50 [1, 9]: 19 µmol/kg

SMILES: CN1CC=C(c2cn(-c3ccc(F)cc3)c3ccccc23)CC1.Cl [Lu 23-083, 1-(4'-Fluorophenyl)-3-(1-methyl-1,2,3,6-tetrahydropyridin-4-yl)-1H-indole, hydrochloride]
- IC50 [2]: 1.8 nM
- Qvipaz. inh. ED50(sc) (5-HT2 receptor): 0.15 µmol/kg
- ED50 (Catalepsy; [10]): > 14 µmol/kg
- ED50 (Catalepsy; [11]): 9.4 µmol/kg
- ED50 [1, 9]: 1.3 µmol/kg

SMILES: O=[N+]([O-])c1ccc2c(c1)c(C1=CCNCC1)cn2-c1ccc(F)cc1 [Lu 23-133, 1-(4'-Fluorophenyl)-5-nitro-3-(1,2,3,6-tetrahydropyridin-4-yl)-1H-indole, maleate]
- IC50 [2]: 5.9 nM
- ED50 (Catalepsy; [10]): > 11 µmol/kg
- ED50 (Catalepsy; [11]): 11 µmol/kg
- ED50 [1, 9]: 18 µmol/kg

SMILES: OCCN1CC=C(c2cn(-c3ccc(F)cc3)c3ccc(Cl)cc23)CC1 [Lu 23-146, 5-Chloro-1-(4'-fluorophenyl)-3-(1-(2-hydroxyethyl)-1,2,3,6-tetrahydropyridin-4-yl)-1H-indole, hydrochloride]
- ED50 (Catalepsy; [8]): 1 µmol/kg
- ED50 [1, 9]: 0.73 µmol/kg

SMILES: Fc1ccc(-n2cc(C3=CCNCC3)c3cc(Cl)ccc32)cc1 [Lu 23-147, 5-Chloro-1-(4'-fluorophenyl)-3-(1,2,3,6-tetrahydropridin-4-yl)-1H-indole]
- ED50 [1, 9]: > 99 µmol/kg

SMILES: O=C1NCCN1CCN1CC=C(c2cn(-c3ccc(F)cc3)c3ccc(Cl)cc23)CC1 [Lu 23-148, 5-Chloro-1-(4'-fluorophenyl)-3-(1-(2-imidazolidinon-1-ylethyl)-1,2,3,6-tetrahydropyridin-4-yl)-1H-indole]
- ED50 [1, 9]: > 91 µmol/kg

SMILES: CN1CC=C(c2cn(-c3ccc(F)cc3)c3ccc(N)cc23)CC1 [Lu 23-149, 5-Amino-1-(4'-fluorophenyl)-3-(1-methyl-1,2,3,6-tetrahydropyridin-4-yl)-1H-indole, fumarate]
- ED50 [1, 9]: 0.45 µmol/kg

SMILES: Fc1ccc(-n2cc(C3=CCNCC3)c3cc(C(F)(F)F)ccc32)cc1 [Lu 23-155, 1-(4'-Fluorophenyl)-3-(1,2,3,6-tetrahydropyridin-4-yl)-5-trifluoromethyl-1H-indole]
- ED50 [1, 9]: 3.8 µmol/kg

SMILES: O=C1NCCN1CCN1CC=C(c2cn(-c3ccc(F)cc3)c3ccc(C(F)(F)F)cc23)CC1 [Lu 23-157, 1-(4'-Fluorophenyl)-3-(1-(2-imidazolidinon-1-ylethyl)-1,2,3,6-tetrahydropridin-4-yl)-5-trifluoromethyl-1H-indole]
- Qvipaz. inh. ED50(sc) (5-HT2 receptor): 0.12 µmol/kg
- ED50 (Catalepsy; [7]): 2.6 µmol/kg
- ED50 (Catalepsy; [8]): 0.49 µmol/kg
- ED50 [1, 9]: 0.37 µmol/kg

SMILES: O=C1CCCN1CCN1CCC(c2cn(-c3ccc(F)cc3)c3ccc(C(F)(F)F)cc23)CC1 [Lu 23-158, 1-(4'-Fluorophenyl)-3-(1-(1-pyrrolidin-2-onylethyl)-4-piperidyl)-5-trifluoromethyl-1H-indole, fumarate]
- ED50 [1, 12]: 2.9 µmol/kg

SMILES: Fc1ccc(-n2cc(C3=CCNCC3)c3cc(F)ccc32)cc1 [Lu 23-159, 5-fluoro-1-(4'-fluorophenyl)-3-(1,2,3,6-tetrahydropyridin-4-yl)-1H-indole]
- ED50 [1, 9]: 47 µmol/kg

SMILES: CC(=O)OCCN1CCN(c2cn(-c3ccc(F)cc3)c3ccc(C(F)(F)F)cc23)CC1 [Lu 23-161]
- ED50 (Catalepsy; [7]): 0.18 µmol/kg
- ED50 (Catalepsy; [8]): 0.09 µmol/kg
- ED50 [1, 12]: 0.05 µmol/kg

SMILES: CCCCCCCCCC(=O)OCCN1CCN(c2cn(-c3ccc(F)cc3)c3ccc(C(F)(F)F)cc23)CC1 [Lu 23-162]
- ED50 [1, 12]: 1.7 µmol/kg

SMILES: CCCCCCCC/C=C\CCCCCCCC(=O)OCCN1CCN(c2cn(-c3ccc(F)cc3)c3ccc(C(F)(F)F)cc23)CC1 [Lu 23-163, 1-(4'-Fluorophenyl)-3-(4-(l-oleyloxyethyl)-1-piperazino)-5-trifluoromethyl-1H-indole, dihydrochloride]
- ED50 [1, 12]: 1.1 µmol/kg

SMILES: CC(C)N1CC=C(c2cn(-c3ccc(F)cc3)c3ccc(F)cc23)CC1 [Lu 23-167, 5-fluoro-1-(4'-fluorophenyl)-3-(1-(2-propyl)-1,2,3,6-tetrahydropyridin-4-yl)-1H-indole, fumarate]
- ED50 (Catalepsy; [7]): > 11 µmol/kg
- ED50 (Catalepsy; [8]): 2.7 µmol/kg
- ED50 [1, 9]: 2.7 µmol/kg

SMILES: OCCCN1CC=C(c2cn(-c3ccc(F)cc3)c3ccc(C(F)(F)F)cc23)CC1 [Lu 23-171, 1-(4'-Fluorophenyl)-3-(1-(3-hydroxypropyl)-1,2,3,6-tetrahydropyridin-4-yl) -5trifluoromethyl-1H-indole]
- ED50 [1, 9]: 0.11 µmol/kg

SMILES: Fc1ccc(-n2cc(C3=CCN(CCn4cccc4)CC3)c3cc(C(F)(F)F)ccc32)cc1 [Lu 23-172, 1-(4'-Fluorophenyl)-3-(1-pyrrolo-2-ethyl)-1,2,3,6-tetrahydropyridin-4-yl)-5-trifluoromethyl-1H-indole. maleate]
- IC50 ([2]; read-out: 3H-Spiroperidol bindings DA-2 receptors IC50, rat striatal membranes, in vitro): 31 nM
- Qvipaz. inh. ED50(sc) (5-HT2 receptor): > 0.55 µmol/kg
- ED50 [1, 9]: > 70 µmol/kg

SMILES: Fc1ccc(-n2cc(C3=CCN(CCn4ccnc4)CC3)c3cc(C(F)(F)F)ccc32)cc1 [Lu 24-002, 1-(4'-Fluorophenyl)-3-(1-(1-imidazole-2-ethyl)-1,2,3,6-tetrahydropyridin-4-yl)-5-trifluoromethyl-1H-indole, dimaleate]
- Qvipaz. inh. ED50(sc) (5-HT2 receptor): > 0.45 µmol/kg
- ED50 [1, 9]: 0.45 µmol/kg

SMILES: CN1CC=C(c2cn(-c3cccc(F)c3)c3ccc([N+](=O)[O-])cc23)CC1 [Lu 24-004, 1-(3'-Fluorophenyl)-5-nitro-3-(1-methyl-1,2,3,6-tetrahydropyridin-4-yl)-1H-indole, maleate]
- ED50 [1, 9]: 1.1 µmol/kg

SMILES: OCCN1CC=C(c2cn(-c3ccc(C(F)(F)F)cc3)c3ccccc23)CC1 [Lu 24-012, 3-(1-(2-Hydroxyethyl)-1,2,3,6-tetrahydropyridin-4-yl)-1-(4'-trifluoromethylphenyl-1H-indole, fumarate]
- ED50 [1, 9]: > 20 µmol/kg

SMILES: CN1CC=C(c2cn(-c3nccs3)c3ccc(F)cc23)CC1 [Lu 24-013, 5-Fluro-3-(1-methyl-1,2,3,6-tetrahydropyridin-4-yl)-1-(2-thiazolo)-1H-indole, fumarate]
- ED50 [1, 9]: > 20 µmol/kg

SMILES: CN1CC=C(c2cn(-c3cccs3)c3ccc([N+](=O)[O-])cc23)CC1 [Lu 24-014, 3-(1-Methyl-1,2,3,6-tetrahydropyridin-4-yl)-5-nitro-1-(2-thienyl)-1H-indole, maleate]
- ED50 [1, 9]: > 22 µmol/kg

SMILES: CN1CC=C(c2cn(-c3ccccn3)c3ccc([N+](=O)[O-])cc23)CC1 [Lu 24-015, 3-(1-Methyl-1,2,3,6-tetrahydropyridin-4-yl)-5-nitro-1-pyridin-2-yl-1H-indole]
- ED50 [1, 9]: 3.8 µmol/kg

SMILES: CN1CC=C(c2cn(-c3cccnc3)c3ccc([N+](=O)[O-])cc23)CC1 [Lu 24-016, 3-(1-Methyl-1,2,3,6-tetrahydropyridin-4-yl)-5-nitro-1-pyridin-3-yl-1H-indole]
- ED50 [1, 9]: > 30 µmol/kg

— patent US4710500A, “1-(4'-fluorophenyl)-3,5-substituted indoles useful in the treatment of psychic disorders and pharmaceutical compositions thereof” (H. Lundbeck A/S, priority 1985, dated 1987)
